Measurements taken from ChEMBL document CHEMBL1129818, “Discovery of anti-influenza A virus activity of a corynanthe-type indole alkaloid, hirsutine, in vitro and the structure-activity relationship of natural and synthetic analogs” (Bioorg Med Chem Lett, 1997).
≈ marks a conversion by molar mass, not a printed value. Where “and” joins values, the source holds several entries; their conditions need not be identical. Equal entries are not always repeated.

Legend:
MDCK [1] = assay: Cytotoxicity was measured by Anti-influenza A virus Ishikawa/7/82 in MDCK cells by MTT assay; assay type: functional; conditions: Canis lupus familiaris
MDCK [2] = assay: Effective concentration required to determine Anti-influenza A virus Ishikawa/7/82 in MDCK cells by MTT assay; assay type: functional, cell-based; conditions: Canis lupus familiaris
[3] = Selectivity index for effective concentration to that of Cytotoxicity in MDCK cells by MTT assay; assay type: functional
MDCK [4] = assay: The compound was evaluated for inhibitory effect on the replication of influenza A subtype H2N2 Adachi/2/57 in MDCK cells; assay type: functional, cell-based; conditions: Canis lupus familiaris
MDCK [5] = assay: The compound was evaluated for inhibitory effect on the replication of influenza B norway/1/80 strain in MDCK cells; assay type: functional, cell-based; conditions: Canis lupus familiaris
MDCK [6] = assay: The compound was evaluated for inhibitory effect on the replication of influenza A subtype H1N1 yamagata/120/86 strain in MDCK cells; assay type: functional, cell-based; conditions: Canis lupus familiaris
MDCK [7] = assay: The compound was evaluated for cytotoxicity by MTT assay in MDCK cells; assay type: functional; conditions: Canis lupus familiaris
MDCK [8] = assay: The compound was evaluated for inhibitory effect on the replication of influenza A subtype H1N1 PR8/34 strain in MDCK cells; assay type: functional, cell-based; conditions: Canis lupus familiaris
MDCK [9] = assay: The compound was evaluated for inhibitory effect on the replication of influenza A subtype H1N1 Bangkok/10/83 strain in MDCK cells; assay type: functional, cell-based; conditions: Canis lupus familiaris
MDCK [10] = assay: The compound was evaluated for inhibitory effect on the replication of influenza A subtype H2N2 murakami/4/64 strain in MDCK cells; assay type: functional, cell-based; conditions: Canis lupus familiaris
MDCK [11] = assay: The compound was evaluated for inhibitory effect on the replication of influenza A subtype H3N2 Philippine/2/82 in MDCK cells; assay type: functional, cell-based; conditions: Canis lupus familiaris
MDCK [12] = assay: The compound was evaluated for inhibitory effect on the replication of influenza B Singapore/222/79 strain in MDCK cells; assay type: functional, cell-based; conditions: Canis lupus familiaris
MDCK [13] = assay: The compound was evaluated for inhibitory effect on the replication of influenza A subtype H3N2 ishikawa/7/82 in MDCK cells; assay type: functional, cell-based; conditions: Canis lupus familiaris
[14] = Selectivity index ratio of CC50 / EC50 was determined; assay type: functional

Row | Compound | CC50 (MDCK [1]) [mg/L] | EC50 (MDCK [2]) [mg/L] | Selectivity index [3] | further results
1 | CC[C@H]1CN2CCc3c([nH]c4ccccc34)[C@H]2C[C@@H]1/C(C=O)=C(/O)OC | 8.4 (≈ 23.7 µM) | > 8.4 |  | 
2 | CCO/C=C(\C(=O)OC)[C@H]1C[C@@H]2c3[nH]c4ccccc4c3CCN2C[C@@H]1CC | 32.4 (≈ 84.7 µM) | 0.9 (≈ 2.35 µM) | 36.4 | 
3 | NC(=O)c1ncn([C@@H]2O[C@H](CO)[C@@H](O)[C@H]2O)n1 [RIBAVIRIN] |  |  |  | EC50 (MDCK [4]): 2.2 mg/L (≈ 9.01 µM); EC50 (MDCK [5]): 5.5 mg/L (≈ 22.5 µM); EC50 (MDCK [6]): 11.7 mg/L (≈ 47.9 µM); CC50 (MDCK [7]): > 100 mg/L; EC50 (MDCK [8]): 8.3 mg/L (≈ 34 µM); EC50 (MDCK [9]): 34.2 mg/L (≈ 140 µM); EC50 (MDCK [10]): 2.1 mg/L (≈ 8.6 µM); EC50 (MDCK [11]): 6.1 mg/L (≈ 25 µM); EC50 (MDCK [12]): 8.5 mg/L (≈ 34.8 µM); EC50 (MDCK [13]): 7.9 mg/L (≈ 32.3 µM)
4 | CC[C@H]1CN2CCc3c([nH]c4ccccc34)[C@@H]2C[C@@H]1/C(=C/OC)C(=O)OC [DIHYDROCORYNANTHEINE] | 86.3 (≈ 234 µM) | > 86.3 |  | 
5 | CC[C@H]1CN2Cc3c(nc4ccccc4c3O)[C@H]2C[C@@H]1/C(=C\OC)C(=O)OC | 38.1 (≈ 99.6 µM) | > 38.1 |  | 
6 | CC[C@@H]1CN2CCc3c([nH]c4ccccc34)[C@@H]2C[C@@H]1/C(=C\OC)C(=O)OC [CORYNANRHEIDINE] | 45.1 (≈ 122 µM) | > 45.1 |  | 
7 | CC[C@H]1C[N+]2(C)CCc3c([nH]c4ccccc34)[C@H]2C[C@@H]1/C(=C\OC)C(=O)OC (some centres undefined) | > 100 | > 100 |  | 
8 | C=C(C(=O)OC)[C@H]1C[C@@H]2c3[nH]c4ccccc4c3CCN2C[C@@H]1CC | 62.1 (≈ 183 µM) | > 62.1 |  | 
9 | C=CC1CN2CCc3c([nH]c4ccccc34)C2C[C@@H]1/C(=C\OC)C(=O)OC (some centres undefined) | 25.2 (≈ 68.8 µM) | 1.8 (≈ 4.91 µM) | 14 | 
10 | CC[C@H]1CN2CCc3c([nH]c4ccccc34)[C@H]2C[C@@H]1/C(=C/OC)C(=O)O | 39.2 (≈ 111 µM) | > 39.2 |  | 
11 | CC[C@H]1CN2CCc3c([nH]c4ccccc34)[C@H]2C[C@@H]1C(/C=N\C)=C(/O)OC | 3.9 (≈ 10.6 µM) | > 3.9 |  | 
12 | CC[C@H]1CN2CC[C@]3(O)C(=Nc4ccccc43)[C@H]2C[C@@H]1/C(=C\OC)C(=O)OC | > 100 | > 100 |  | 
13 | CC[C@H]1CN2CCc3c(n(C)c4ccccc34)[C@H]2C[C@@H]1/C(=C\OC)C(=O)OC | 25.3 (≈ 66.1 µM) | 1.7 (≈ 4.44 µM) | 15.8 | 
14 | CC[C@H]1CN2CCc3c([nH]c4cccc(OC)c34)[C@H]2C[C@@H]1/C(=C\OC)C(=O)OC | 40.7 (≈ 102 µM) | 0.5 (≈ 1.25 µM) | 76.8 | 
15 | CC[C@H]1C[N+]2([O-])CCc3c([nH]c4ccccc34)[C@H]2C[C@@H]1/C(=C\OC)C(=O)OC (some centres undefined) | > 100 | 86.4 (≈ 225 µM) | >1.2 | 
16 | CC[C@H]1CN2CCc3c([nH]c4ccccc34)[C@H]2C[C@@H]1/C(=C\OC)C(=O)OC [HIRSUTINE] |  |  |  | EC50 (MDCK [4]): > 23.5 mg/L; EC50 (MDCK [5]): > 23.5 mg/L; EC50 (MDCK [6]): > 23.5 mg/L; CC50 (MDCK [7]): 23.5 mg/L (≈ 63.8 µM); Ratio [14]: 58.8 and 41.2; EC50 (MDCK [8]): > 23.5 mg/L; EC50 (MDCK [9]): > 23.5 mg/L; EC50 (MDCK [10]): > 23.5 mg/L; EC50 (MDCK [11]): 0.57 mg/L (≈ 1.55 µM); EC50 (MDCK [12]): > 23.5 mg/L; EC50 (MDCK [13]): 0.4 mg/L (≈ 1.09 µM)
